From patent US20180369268A1, “METHODS FOR IDENTIFYING INHIBITORS OF "STIMULATOR OF INTERFERON GENE"- DEPENDENT INTERFERON PRODUCTION” (ADURO BIOTECH, INC., priority 2015, published 2018)

The compounds below were run against T1, hSTING HAQ allele (Homo sapiens, UniProt Q86WV6, G230A/H232R/R293Q) (assay: Differential scanning fluorometry (DSF) Tm shift with purified STING AA140-379). Conditions: DSF, ligand 1 mM, 1 mg/ml STING AA140-379; read-out: hSTING Tm Shift HAQ.
T1 construct: DNA encoding amino acids 140-379 (amino acid numbering corresponding to Swiss Prot Q86WV6); 6xHIS-SUMO (with TEV site) (N, cleaved yes); made in house; host or cells: Rosetta2 (DE3) E. coli
Assay type: binding
Excerpt: DNA encoding amino acids 140-379 (amino acid numbering corresponding to Swiss Prot Q86WV6) was amplified from plasmids containing the full length sequence of human STING alleles via polymerase chain reaction with the following primers: forward […] (SEQ ID NO: 9) and reverse […] (SEQ ID NO: 10). STING variant alleles were assigned according to Yi, et al, (2013), PLoS One, 8(10), e77846 (DOI: 10.1371/journal.pone.0077846. PCR products were cloned into bacterial expression vector encoding a N-terminal hexa-histidine affinity tag (6×HIS) followed by a small ubiquitin-like modifier (SUMO) solubility sequence (Butt, et al, (2005) Protein expression and purification 43.1, 1-9) and tobacco etch virus protease cleavage site (TEV) using ligation independent cloning (Aslanidis, et al, (1990) Nucleic acids research, 18.20, 6069-6074).
Plasmids encoding 6×HIS-SUMO-TEV-STING amino acids 140-379 were transformed into Rosetta2 (DE3) E. coli cells (EMD Millipore) for protein expression. Cells were grown in lysogeny broth at 37° C. until a […] absorbance of 0.6 was reached. Cells were then transferred to 18° C. and protein expression was induced overnight by the addition of isopropyl β-D-1-thiogalactopyranoside to the media at a concentration of 0.25 mM. Cells were harvested by centrifugation at 6,000 times gravity for 10 minutes. Cell pellets were re-suspended on ice in a buffer containing 50 mM Tris hydrochloride (Tris-HCl) pH 7.5, 500 mM sodium chloride (NaCl), 20 mM imidazole, 10% glycerol, 1 mM tris(2-carboxyethyl)phosphine hydrochloride (TCEP) and protease inhibitor tablet (Pierce) (Buffer A). Cells were lysed using an S-450D sonifier (Emmerson industrial) on ice. Cell lysate was centrifuged at 15,000 times gravity for 30 minutes at 4° C. Soluble material was applied to nickel-nitrilotriacetic acid (Ni-NTA) coupled Sepharose CL-6B (Qiagen) for 1 hour with gentle rocking at 4° C. After transfer to a gravity flow poly-prep column (Bio-Rad), resin was washed extensively in buffer A. Protein was eluted from the column in a buffer containing 20 mM Tris-HCl pH 7.5, 150 mM NaCl, 300 mM imidazole, 10% glycerol and 0.5 mM TCEP. To remove the 6×HIS-SUMO tag eluted protein was mixed with TEV protease (Sigma) at a ratio of 1:250 (w:w) and dialyzed overnight against a buffer containing 20 mM Tris-HCl pH 7.5, 150 mM NaCl, 5 mM imidazole, 10% glycerol and 0.5 mM TCEP. TEV protease and 6×HIS-SUMO tags were depleted by the addition of Ni-NTA resin (Qiagen) to the sample, purified STING amino acids 140-379 was collected by removal of the resin using a poly-prep column STING AA140-379 was concentrated with a 10,000 Dalton molecular weight cutoff centrifuge concentrator (EMD Millipore) to a final concentration of approximately 10 mg/ml. Protein was aliquoted, flash frozen in liquid nitrogen and stored at −80° C. until use.
Differential scanning fluorometry (DSF) is a technique that measures the ability of ligands to bind to and stabilize purified proteins (Niesen, et al, (2007) Nature protocols 2.9, 2212-2221). The protein is heated in the presence of a dye that binds to and fluoresces in hydrophobic environments. The protein is thermally denatured by heating resulting in increased dye binding to the unfolded protein and fluorescence. The temperature midpoint (Tm) of a proteins denaturation is established by calculating the half maximal value of the denaturation curve. The temperature midpoint of the protein in the presence of a ligand is directly related to the affinity of the ligand for the protein and therefore its ability to stabilize the protein at higher temperatures.
DSF was performed in a 20 μL reaction comprising 20 mM Tris-HCl pH 7.5, 150 mM NaCl, 1:500 dilution of SYPRO Orange (Life Technologies), 1 mg/ml purified STING AA140-379 protein and ligand at a concentration of 1 mM. Wild type hSTING, HAQ allele hSTING and/or REF allele hSTING were used with scaffold molecules of the invention as listed in Table 2.

T1 sequence (Q86WV6 140-379 G230A/H232R/R293Q): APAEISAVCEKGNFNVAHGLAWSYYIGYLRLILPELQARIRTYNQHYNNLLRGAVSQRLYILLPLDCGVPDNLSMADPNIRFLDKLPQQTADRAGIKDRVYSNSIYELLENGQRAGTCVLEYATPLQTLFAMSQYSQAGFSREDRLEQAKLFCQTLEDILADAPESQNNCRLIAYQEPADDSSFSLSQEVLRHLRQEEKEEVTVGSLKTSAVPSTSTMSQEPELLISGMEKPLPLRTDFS

SMILES	ΔTm at 1000 µM [°C]
Nc1nc(N)c2ncn([C@@H]3O[C@@H]4CO[P@@](=O)(S)O[C@H]5[C@@H](O)[C@H](n6cnc7c(N)nc(N)nc76)O[C@@H]5CO[P@@](=O)(S)O[C@H]4[C@H]3O)c2n1 [Compound 23, (2R,3R,3aS,5R,7aR,9R,10R,10aS,12R,14aR)-2,9-bis(2,6-diamino-9H-purin-9-yl)-3,10-dihydroxy-5,12-dimercaptooctahydro-2H,7H-difuro[3,2-d:3′,2′-j][1,3,7,9]tetraoxa[2,8]diphosphacyclododecine 5,12-dioxide]	15.1
Nc1nc(N)c2ncn([C@@H]3O[C@@H]4CO[P@@](=O)(S)O[C@H]5[C@@H](O)[C@H](n6cnc7c(N)nc(N)nc76)O[C@@H]5CO[P@](=O)(S)O[C@H]4[C@H]3O)c2n1 [Compound 23a, (2R,3R,3aS,5R,7aR,9R,10R,10aS,12S,14aR)-2,9-bis(2,6-diamino-9H-purin-9-yl)-3,10-dihydroxy-5,12-dimercaptooctahydro-2H,7H-difuro[3,2-d:3′,2′-j][1,3,7,9]tetraoxa[2,8]diphosphacyclododecine 5,12-dioxide]	6.3
CC(C)C(=O)Nc1nc2c(ncn2[C@@H]2O[C@@H]3CO[P@@](=O)(S)O[C@H]4[C@@H](F)[C@H](n5cnc6c(=O)[nH]c(NC(=O)C(C)C)nc65)O[C@@H]4CO[P@@](=O)(S)O[C@H]3[C@H]2F)c(=O)[nH]1 [Compound 32, N,N′-(((2R,3R,3aR,5R,7aR,9R,10R,10aR,12R,14aR)-3,10-difluoro-5,12-dimercapto-5,12-dioxidooctahydro-2H, 7H-difuro[3,2-d:3′,2′-j][1,3,7,9]tetraoxa[2,8]diphosphacyclododecine-2,9-diyl)bis(6-oxo-6,9-dihydro-1H-purine-9,2-diyl))bis(2-methylpropanamide)]	11.5
Nc1ccn([C@@H]2O[C@@H]3CO[P@@](=O)(S)O[C@H]4[C@@H](F)[C@H](n5cnc6c(N)ncnc65)O[C@@H]4CO[P@@](=O)(S)O[C@H]3[C@H]2F)c(=O)n1 [Compound 37, 4-amino-1-((2R,3R,3aR,5R,7aR,9R,10R,10aR,12R,14aR)-9-(6-amino-9H-purin-9-yl) 3,10-difluoro-5,12-dimercapto 5,12-dioxidooctahydro-2H,7H-difuro[3,2-d:3′,2′-j][1,3,7,9]tetraoxa[2,8]diphosphacyclododecin-2-yl)pyrimidin-2(1H)-one]	10.3
Nc1ccn([C@@H]2O[C@@H]3CO[P@](=O)(S)O[C@H]4[C@@H](F)[C@H](n5cnc6c(N)ncnc65)O[C@@H]4CO[P@@](=O)(S)O[C@H]3[C@H]2F)c(=O)n1 [Compound 37a, 4-amino-1-((2R,3R,3aR,5R,7aR,9R,10R, 10aR,12S,14aR)-9-(6-amino-9H-purin-9-yl)-3,10-difluoro-5,12-dimercapto-5,12-dioxidooctahydro-2H,7H-difuro[3,2-d: 3′,2′-j][1,3,7,9]tetraoxa[2,8]diphosphacyclododecin-2-yl)pyrimidin-2(1H)-one]	6.4

More lines, now with the values ahead:

ΔTm at 1000 µM [°C]	SMILES
7.6	CC(C)C(=O)Nc1nc2c(ncn2[C@@H]2O[C@@H]3CO[P@@](=O)(S)O[C@@H]4[C@H](O)[C@@H](CO[P@@](=O)(S)O[C@H]3[C@H]2O)O[C@H]4n2cnc3c(NC(=O)c4ccccc4)ncnc32)c(=O)[nH]1 [Compound 42, dithio-[RP, RP]-cyclic-[ibG(3′,5′)p-BzA(2′,5′)p]]
10.5	Nc1nc2c(ncn2[C@@H]2O[C@@H]3CO[P@](=O)(S)O[C@@H]4[C@H](O)[C@@H](CO[P@](=O)(S)O[C@H]3[C@H]2O)O[C@H]4n2cnc3c(N)ncnc32)c(=O)[nH]1 [Compound 43]
2.3	Nc1ncnc2c1ncn2[C@H]1O[C@H]2CO[P@](=O)(S)O[C@@H]3[C@H](O)[C@@H](n4cnc5c(N)ncnc54)O[C@H]3CO[P@](=O)(S)O[C@@H]2[C@@H]1O [Compound 48, (2S,3S,3aR,5S,7aS,9S,10S,10aR,12S,14aS)-2,9-bis(6-amino-9H-purin-9-yl)-3,10-dihydroxy-5,12-dimercaptooctahydro-2H,7H-difuro[3,2-d:3′,2′-j][1,3,7,9]tetraoxa[2,8]diphosphacyclododecine 5,12-dioxide]
6.6	Nc1ncnc2c1ncn2[C@H]1O[C@H]2CO[P@@](=O)(S)O[C@@H]3[C@H](O)[C@@H](n4cnc5c(N)ncnc54)O[C@H]3CO[P@](=O)(S)O[C@@H]2[C@@H]1O [Compound 48a, Triethylammonium (2S,3S,3aR,5R,7aS,9S,10S,10aR,12S,14aS)-2,9-bis(6-amino-9H-purin-9-yl)-3,10-dihydroxyoctahydro-2H, 7H-difuro[3,2-d: 3′,2′-j][1,3,7,9]tetraoxa[2,8]diphosphacyclododecine-5,12-bis(thiolate) 5,12-dioxide]
3.5	Nc1ncnc2c1ncn2[C@H]1O[C@H]2CO[P@@](=O)(S)O[C@@H]3[C@H](O)[C@@H](n4cnc5c(N)ncnc54)O[C@H]3CO[P@@](=O)(S)O[C@@H]2[C@@H]1O [Compound 48b, triethylammonium (2S,3S,3R,5R,7aS,9S,10S,10aR,12R,14aS)-2,9-bis(6-amino-9H-purin-9-yl)-3,10-dihydroxyoctahydro-2H,7H-difuro[3,2-d: 3′,2′-j][1,3,7,9]tetraoxa[2,8]diphosphacyclododecine-5,12-bis(thiolate) 5,12-dioxide]
7.2	C#CCOc1nc(N)nc2c1ncn2[C@@H]1O[C@@H]2COP(=O)(O)O[C@H]3[C@@H](O)[C@H](n4cnc5c(=O)[nH]c(N)nc54)O[C@@H]3COP(=O)(O)O[C@H]2[C@H]1O [compound 25, 2-amino-9-((2R,3R,3aS,7aR,9R,10R,10aS,14aR)-9-(2-amino-6-(prop-2-yn-1-yloxy)-9H-purin-9-yl)-3,5,10,12-tetrahydroxy-5,12-dioxidooctahydro-2H,7H-difuro[3,2-d:3′,2′-j][1,3,7,9]tetraoxa[2,8]diphosphacyclododecin-2-yl)-1,9-dihydro-6H-purin-6-one]

Same assay, conditions: read-out: hSTING Tm Shift HAQ

SMILES	ΔTm at 1000 µM [°C]
CC(C)(C)[Si](C)(C)O[C@H]1[C@H]2O[P@@](=O)(S)OC[C@H]3O[C@@H](n4cnc5c(N)ncnc54)[C@H](F)[C@@H]3O[P@](=O)(S)OC[C@H]1O[C@H]2n1cnc2c(N)ncnc21 [Compound 6a, dithio-[SP, RP]-cyclic-[3′OTBS-A(2′,5′)p-2′F-A(3′,5′)p]]	20.2
